Literature values in the CATMoS acute toxicity set (Mansouri et al. 2021).
Values joined by “and” are separate entries in the source; they are usually repeats but may differ in a detail not shown here. Equal entries are not always repeated.

Assay: rat acute oral toxicity
Conditions: in vivo
For `Cc1cn([C@H]2C=C[C@@H](CO)O2)c(=O)[nH]c1=O`, the LD50 is listed as 4000 mg/kg. For `O=C(Cl)Oc1cccc2ccccc12`, the LD50 is listed as 2550 mg/kg. In the case of `Cc1c(Cl)c(=O)oc2cc(OP(=O)(OCCCCl)OCCCCl)ccc12`, the LD50 is given as 211 mg/kg. For `c1ccc(CC2CCNCC2)cc1`, the LD50 is given as 540 mg/kg. For `CN1CCC(Oc2ccc(N)cc2)(c2ccccc2)CC1`, the LD50 is given as 410 mg/kg. In the case of `CCOCC(=O)Nc1ccc(C(=O)c2ccccc2)cc1C`, the LD50 is given as 2280 mg/kg. For `CCn1c2c(c3cccc(N)c31)CCCC2`, the LD50 is given as 1090 mg/kg. In the case of `COCC(=O)NP(=O)(OC)SC` (stereo not drawn), the LD50 is given as 200 mg/kg. In the case of `C=CCOc1ccc([C@H]2c3ccc(OC)cc3OC(C)(C)[C@@H]2c2ccccc2)cc1`, the LD50 is given as 500 mg/kg. For `CC(C)(C)c1cc(C=C(C#N)C#N)cc(C(C)(C)C)c1O`, the LD50 is listed as 87 mg/kg. For `C=CCC1=C(C)C(OC(=O)C2C(C)(C)C2(C)C)CC1=O` (stereo not drawn), the LD50 is given as 174 mg/kg. For `O=S(=O)(O)OCCOc1cc(Cl)c(Cl)cc1Cl`, the LD50 is given as 720 mg/kg. In the case of `CC1COn2c1nc1ccccc1c2=O` (stereo not drawn), the LD50 is given as 765 mg/kg. For `CN1CCOC(c2ccccc2)c2ccccc2C1` (stereo not drawn), the LD50 is given as 80 mg/kg. For `O=[N+]([O-])c1nccn1CC(O)CO` (stereo not drawn), the LD50 is listed as 5080 mg/kg. In the case of `CCNC(=O)Cc1ccccc1`, the LD50 is given as 756 mg/kg. For `CCOP(=S)(OCC)SCc1cccc([N+](=O)[O-])c1`, the LD50 is listed as 250 mg/kg. In the case of `CN1CCN(CCCN2c3ccccc3Sc3ccc(C(F)(F)F)cc32)CC1`, the LD50 is listed as 543 mg/kg. For `CC(=O)Nc1ccc(CC(=O)O)cc1`, the LD50 is given as 14800 mg/kg. For `Cc1ccc2c(c1)c(-c1ccccc1)cn2N(CCN(C)C)CCN(C)C`, the LD50 is listed as 980 mg/kg. In the case of `ON=C1C=CC(=NO)C=C1`, the LD50 is given as 464 mg/kg. For `CCOC(=S)SSC(=S)OCC`, the LD50 is listed as 480 mg/kg. For `O=S(=O)(O)c1cc(Cl)ccc1C=Cc1ccc(-n2nc3cc(S(=O)(=O)O)c4ccccc4c3n2)cc1S(=O)(=O)O`, the LD50 is listed as 13700 mg/kg. In the case of `CCOC(=O)C(Cl)Cc1cc(-n2nc(C)n(C(F)F)c2=O)c(F)cc1Cl` (stereo not drawn), the LD50 is listed as 5140 mg/kg. In the case of `CNC(C)Cc1ccc(Cl)cc1` (stereo not drawn), the LD50 is given as 110 mg/kg. In the case of `Cc1cccc(N2CCN(CC=Cc3ccc4c(c3)CCC(=O)N4Cc3ccccc3)CC2)c1`, the LD50 is given as 500 mg/kg. For `CC(N)CSc1ccc(Cl)cc1` (stereo not drawn), the LD50 is listed as 600 mg/kg. For `C1N2CN3CN1CN(C2)C3`, the LD50 is listed as 9200 mg/kg. In the case of `CC(=O)OC(C)(C)CCc1ccccc1`, the LD50 is given as 4850 mg/kg. In the case of `CC(=O)OC1(C)CC(C)C(=O)C(C(O)CC2CC(=O)NC(=O)C2)C1` (stereo not drawn), the LD50 is given as 0.158 mg/kg. For `CCN(CC)CCNC(=O)c1cc(S(C)(=O)=O)ccc1OC`, the LD50 is listed as 4840 mg/kg. For `C=CC(=O)NCNC(=O)C=C`, the LD50 is given as 390 mg/kg. In the case of `N#CN=c1ccccn1Cc1ccc(Cl)cc1`, the LD50 is listed as 500 mg/kg. For `CC(C)N1C=CC(=C2C(=O)c3ccccc3C2=O)C=C1`, the LD50 is given as 1450 mg/kg. For `Cc1cc(Cl)cc2sc(-c3sc4cc(Cl)cc(C)c4c3OS(=O)(=O)O)c(OS(=O)(=O)O)c12`, the LD50 is given as 4360 mg/kg. In the case of `Oc1ccccc1S`, the LD50 is listed as 178 mg/kg. For `CC(Cc1ccccc1)NCCCCl` (stereo not drawn), the LD50 is listed as 410 mg/kg. For `Cc1cc2[nH]c(C(F)(F)F)nc2cc1Cl`, the LD50 is given as 55 mg/kg. In the case of `FC(F)(F)c1nc2c(I)cc(Cl)cc2[nH]1`, the LD50 is given as 24 mg/kg. In the case of `COC1C(O)CC(=O)OC(C)CC=CC=CC(OC2CCC(N(C)C)C(C)O2)C(C)CC(CC=O)C1OC1OC(C)C(OC2CC(C)(O)C(O)C(C)O2)C(N(C)C)C1O` (stereo not drawn), the LD50 is listed as 4650 mg/kg. In the case of `O=C(CCC(=O)OC1CCCCC1)OC1CCCCC1`, the LD50 is given as 12000 mg/kg. In the case of `OCCN1CCCCC1`, the LD50 is listed as 1500 mg/kg. In the case of `O=C(CCl)c1ccc(O)cc1`, the LD50 is listed as 230 mg/kg. For `CC1(C)Cc2cccc(OC(=O)NCSc3ccc(Br)cc3)c2O1`, the LD50 is listed as 25 mg/kg. For `NN=C(N)N`, the LD50 is given as 500 mg/kg. For `O=[N+]([O-])c1cccc(S(=O)(=O)O)c1`, the LD50 is given as 11000 mg/kg. In the case of `COC(C)N(C)N=O` (stereo not drawn), the LD50 is listed as 240 mg/kg. In the case of `CC(=O)CC(C)(C)N(C)N=O`, the LD50 is given as 2100 mg/kg. For `Nc1ccc2ccccc2c1`, the LD50 is listed as 727 mg/kg. In the case of `CCOC(=S)C=Cc1ccc(Cl)cc1`, the LD50 is listed as 950 mg/kg. For `CCC1(CC)C(=O)C=CNC1=O`, the LD50 is listed as 780 mg/kg. For `N#Cc1sc2c(=O)c3ccccc3c(=O)c=2sc1C#N`, the LD50 is listed as 638 mg/kg. For `CCSCCOP(=S)(OC)OC`, the LD50 is given as 75 mg/kg. For `CCC(C)(C)N/C(N)=N/C#N`, the LD50 is given as 300 mg/kg. For `CC(=O)OCCCC(=O)CBr`, the LD50 is listed as 600 mg/kg. For `CNCCON=C1c2ccccc2CCc2ccccc21`, the LD50 is given as 860 mg/kg. In the case of `CC(C)(C)c1cc(C(=O)c2cccs2)cc(C(C)(C)C)c1O`, the LD50 is given as 1620 mg/kg. In the case of `OCC1COC(c2ccccc2)O1` (stereo not drawn), the LD50 is listed as 3150 mg/kg. For `CC(C)C(=O)Nc1ccc([N+](=O)[O-])c(C(F)(F)F)c1`, the LD50 is given as 787 mg/kg. For `COP(=O)(OC)OC(C)=CC(=O)Oc1ccc(C)cc1`, the LD50 is listed as 176 mg/kg. In the case of `O=c1[nH]c2ccccc2o1`, the LD50 is listed as 700 mg/kg. For `COc1ccc(OC)cc1`, the LD50 is given as 3600 mg/kg. In the case of `O=C(Nc1c(Cl)c(Cl)c(Cl)c2nc(C(F)(F)F)[nH]c12)c1ccccc1`, the LD50 is given as 100 mg/kg. For `CN=C(O)O/N=C1/SCOC1(C)C`, the LD50 is given as 2 mg/kg. For `CCCCCCC(C)I` (stereo not drawn), the LD50 is listed as 8200 mg/kg. For `O=S(=O)(O)C(F)(F)C(F)(F)C(F)(F)C(F)(F)C(F)(F)C(F)(F)C(F)(F)C(F)(F)F`, the LD50 is given as 251 mg/kg and 154 mg/kg. For `CN1CCCCC1C(CO)(c1ccccc1)c1ccccc1` (stereo not drawn), the LD50 is given as 410 mg/kg. In the case of `O[C@@H]1CO[C@H]2[C@@H]1OC[C@@H]2O`, the LD50 is given as 24200 mg/kg. For `Cc1nc(N)nc(N2N=CCC2C)n1` (stereo not drawn), the LD50 is given as 3200 mg/kg. In the case of `CC(C)(N)Cc1ccc(Cl)cc1`, the LD50 is given as 150 mg/kg and 250 mg/kg. For `CCC(C)C(CN(C)C)c1cc(F)ccc1OC` (stereo not drawn), the LD50 is given as 300 mg/kg. In the case of `OC(COc1ccccc1)COc1ccccc1`, the LD50 is given as 1450 mg/kg. For `CCN(CC)C(=O)c1nnn(-c2ccccc2)c1C`, the LD50 is given as 500 mg/kg. In the case of `c1ccc(C2=C(c3ccccc3)SCCO2)cc1`, the LD50 is listed as 3000 mg/kg. In the case of `COP(=O)(OC)Oc1ccc(SC)cc1`, the LD50 is listed as 7 mg/kg. For `COC(C)CC(=O)O` (stereo not drawn), the LD50 is given as 3030 mg/kg. For `COCCOC`, the LD50 is listed as 5370 mg/kg. For `O=COCCCc1ccccc1`, the LD50 is listed as 4090 mg/kg. In the case of `CC(C)=CC1C(C(=O)Cl)C1(C)C` (stereo not drawn), the LD50 is listed as 400 mg/kg. In the case of `FC(F)(Cl)C(Cl)Cl`, the LD50 is given as 3290 mg/kg. In the case of `CCC1OC(C)C(=NOC(=O)NC)S1` (stereo not drawn), the LD50 is given as 8 mg/kg. For `Cc1ccc(C)c(O)c1`, the LD50 is given as 444 mg/kg. For `Clc1ccc(-c2cccc(Cl)c2Cl)c(Cl)c1`, the LD50 is listed as 4250 mg/kg. For `CC(=O)Oc1ccc(Oc2c(I)cc(C(=O)O)cc2I)cc1I`, the LD50 is listed as 4600 mg/kg. In the case of `O=NN(CCCC(F)(F)F)CCCC(F)(F)F`, the LD50 is given as 750 mg/kg. For `C[N+](C)(C)CCI`, the LD50 is given as 700 mg/kg. In the case of `O=C(O)CCCCCCCCCl`, the LD50 is listed as 3000 mg/kg. For `O=C(O)C1C2CCC(O2)C1C(=O)O` (stereo not drawn), the LD50 is given as 51 mg/kg. For `Cc1ccccc1Oc1cccnn1`, the LD50 is listed as 3090 mg/kg. In the case of `CC(C)CNCC(C)C`, the LD50 is listed as 258 mg/kg. In the case of `COC(=O)C[N+](=O)[O-]`, the LD50 is listed as 3770 mg/kg. For `C#CC(C)N(C)C(=O)Nc1ccc(Cl)cc1` (stereo not drawn), the LD50 is listed as 1790 mg/kg. In the case of `CC(=O)c1ccc(N)cc1`, the LD50 is given as 381 mg/kg. For `CN=C(O)O/N=C1/COCS1`, the LD50 is given as 49 mg/kg. For `Cc1ccc(Cl)c(OCC(O)CNC(C)(C)C)c1` (stereo not drawn), the LD50 is listed as 518 mg/kg. For `CCC1(CC)Oc2cccc(OC(=O)NC)c2O1`, the LD50 is given as 46 mg/kg. For `COc1ccc(Oc2ccc(NC(=O)N(C)C)cc2)cc1`, the LD50 is listed as 1000 mg/kg. For `C=CCc1ccc2c(c1)OCO2`, the LD50 is listed as 1950 mg/kg. In the case of `CCCN(CCC)C(=O)C(Cc1ccc(OCCN(CC)CC)cc1)NC(=O)c1ccccc1` (stereo not drawn), the LD50 is given as 800 mg/kg and 1070 mg/kg. For `CN(C)C(=S)c1ccc2c(c1)OCO2`, the LD50 is listed as 79 mg/kg. For `O=NN1CCCCCCC1`, the LD50 is given as 283 mg/kg. For `O=c1c(F)cn(C2CCCO2)c(=O)n1C1CCCO1` (stereo not drawn), the LD50 is given as 1730 mg/kg. For `CCN(Cc1ccncc1)C(=O)C(CO)c1ccccc1` (stereo not drawn), the LD50 is given as 865 mg/kg. For `CCN(CC)Cc1nccn1-c1ccc([N+](=O)[O-])cc1C(=O)c1ccccc1Cl`, the LD50 is given as 1580 mg/kg. For `C[C@H](CN1CCCC1)C(=O)c1ccc(C(F)(F)F)cc1`, the LD50 is given as 525 mg/kg. In the case of `CN1CN(CC(=O)O)CSC1=S`, the LD50 is given as 1000 mg/kg. For `CC(C)OP(=O)(OC(C)C)SCc1ccccc1`, the LD50 is given as 550 mg/kg. For `CC(=O)C1=C(O)[C@@H]2[C@H]3c4c[nH]c5cccc(c45)C[C@H]3C(C)(C)N2C1=O`, the LD50 is listed as 36 mg/kg.
